Results taken from paper PMC11053857, “Synthesis, In Vitro Biological Evaluation and Molecular Modeling of Benzimidazole-Based Pyrrole/Piperidine Hybrids Derivatives as Potential Anti-Alzheimer Agents” (Pharmaceuticals, 2024).
Like-named read-outs stand apart in the source and are kept apart here.

Legend:
[1] = molecular target: butyrylcholinesterase (BuChE) (Homo sapiens, UniProt P06276); assay: biochemical; settings: in vitro, 25 °C, pH 8.0, triplicate, standards listed separately for series 1–13 and 14–26
Experimental: (§1) The enzyme inhibition activities for acetylcholinesterase and butyrylcholinesterase were determined using the method of Ellman et al. with slight modifications. The 62.0 mM sodium phosphate buffer (pH 8.0, 880 μL) used contained 0.002 M of DTNB (5,5′-dithiobis-2-nitrobenzoic acid). AChE and BuChE solutions (40 μL) were added with the test compounds (40 μL) and kept at 25 °C for 10–15 min. The acetylthiocholine or butyrylthiocholine (40 μL) were added just before the initiation of the catalytic reaction. The enzymatic hydrolysis of the substrates encompassing the formation of yellow 5-thio-2-nitrobenzoate anion products was monitored at 412 nm (15 min). The inhibition reactions were repeated in triplicate with a Shimadzu spectrophotometer (Kyoto, Japan).

[2] = molecular target: acetylcholinesterase (AChE) (Homo sapiens, UniProt P22303); assay: biochemical
Experimental: as §1, with “The enzymatic hydrolysis of the substrates encompassing the formation of yellow 5-thio-2-nitrobenzoate anion products was monitored at 412 nm (15 min).” left out

[3] = read-out: BuChE Inhibition IC50 ± SEM
[4] = in vitro, 25 °C, pH 8.0, triplicate, standards listed separately for series 1–13 and 14–26, read-out: AChE Inhibition IC50 ± SEM

Sequence of acetylcholinesterase (AChE) (P22303 32-614, species assumed): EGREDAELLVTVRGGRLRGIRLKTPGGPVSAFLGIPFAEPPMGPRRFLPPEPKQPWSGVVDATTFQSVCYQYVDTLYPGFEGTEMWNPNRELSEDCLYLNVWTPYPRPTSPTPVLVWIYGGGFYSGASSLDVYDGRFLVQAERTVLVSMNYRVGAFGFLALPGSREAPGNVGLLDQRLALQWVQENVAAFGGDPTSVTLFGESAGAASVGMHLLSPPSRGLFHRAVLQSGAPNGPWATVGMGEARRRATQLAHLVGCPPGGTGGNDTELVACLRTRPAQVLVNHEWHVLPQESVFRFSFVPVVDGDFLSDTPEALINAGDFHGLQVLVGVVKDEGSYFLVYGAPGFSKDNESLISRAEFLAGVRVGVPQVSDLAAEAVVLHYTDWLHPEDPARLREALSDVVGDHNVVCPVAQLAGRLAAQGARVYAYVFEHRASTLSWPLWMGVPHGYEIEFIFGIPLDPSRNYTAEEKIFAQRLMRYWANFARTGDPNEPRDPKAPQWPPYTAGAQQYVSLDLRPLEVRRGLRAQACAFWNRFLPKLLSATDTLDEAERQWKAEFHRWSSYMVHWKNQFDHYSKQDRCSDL
Sequence of butyrylcholinesterase (BuChE) (P06276 29-602): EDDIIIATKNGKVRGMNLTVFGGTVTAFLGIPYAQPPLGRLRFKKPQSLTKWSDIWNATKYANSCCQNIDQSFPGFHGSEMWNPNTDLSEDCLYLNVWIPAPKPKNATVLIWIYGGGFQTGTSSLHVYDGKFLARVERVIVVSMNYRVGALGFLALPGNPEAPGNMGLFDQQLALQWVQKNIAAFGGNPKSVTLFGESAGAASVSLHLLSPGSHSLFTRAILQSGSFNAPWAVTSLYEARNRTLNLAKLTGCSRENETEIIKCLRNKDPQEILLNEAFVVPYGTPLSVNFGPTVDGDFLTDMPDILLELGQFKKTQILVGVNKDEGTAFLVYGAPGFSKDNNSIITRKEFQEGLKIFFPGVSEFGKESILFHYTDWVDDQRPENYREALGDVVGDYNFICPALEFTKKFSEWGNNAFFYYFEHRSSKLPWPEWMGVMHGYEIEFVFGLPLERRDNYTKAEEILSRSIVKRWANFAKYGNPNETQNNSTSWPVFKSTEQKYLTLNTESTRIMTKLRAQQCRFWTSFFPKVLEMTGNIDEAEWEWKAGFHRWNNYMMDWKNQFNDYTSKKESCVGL

| SMILES | IC50 [1, 3] | IC50 [2, 4] | IC50 ([1]; BuChE Inhibition IC50 ± SEM) | IC50 [2] |
| --- | --- | --- | --- | --- |
| COc1ccc2[nH]c(SC/C(=N/N=C/c3cc[nH]c3)c3ccc(C)cc3)nc2c1 [Compound 1, 2-(((E)-2-(((E)-(1H-pyrrol-3-yl)methylene)hydrazono)-2-(p-tolyl)ethyl)thio)-5-methoxy-1H-benzo[d]imidazole] | 31.03 ± 0.11 µM | 27.11 ± 0.02 µM |  |  |
| COc1ccc(/C(CSc2nc3cc(OC)ccc3[nH]2)=N\N=C\c2cc[nH]c2)cc1 [Compound 2, 2-(((E)-2-(((E)-(1H-pyrrol-3-yl)methylene)hydrazono)-2-(4-methoxyphenyl)ethyl)thio)-5-methoxy-1H-benzo[d]imidazole] | 23.22 ± 0.15 µM | 20.04 ± 0.15 µM |  |  |
| COc1ccc2[nH]c(SC/C(=N/N=C/c3cc[nH]c3)c3ccc(-c4ccccc4)cc3)nc2c1 [Compound 3, 2-(((E)-2-(((E)-(1H-pyrrol-3-yl)methylene)hydrazono)-2-([1,1′-biphenyl]-4-yl)ethyl)thio)-5-methoxy-1H-benzo[d]imidazole] | 34.06 ± 0.14 µM | 30.11 ± 0.23 µM |  |  |
| COc1ccc2[nH]c(SC/C(=N/N=C/c3cc[nH]c3)c3ccccc3OC)nc2c1 [Compound 4, 2-(((E)-2-(((E)-(1H-pyrrol-3-yl)methylene)hydrazono)-2-(2-methoxyphenyl)ethyl)thio)-5-methoxy-1H-benzo[d]imidazole] | 29.2 ± 0.8 µM | 26.2 ± 0.41 µM |  |  |
| C(=N\N=C(\CSc1nc2ccccc2[nH]1)c1ccc(-c2ccccc2)cc1)/c1cc[nH]c1 [Compound 5, 2-(((E)-2-(((E)-(1H-pyrrol-3-yl)methylene)hydrazono)-2-([1,1′-biphenyl]-4-yl)ethyl)thio)-1H-benzo[d]imidazole] | 37.21 ± 0.23 µM | 34.16 ± 0.03 µM |  |  |
| O=[N+]([O-])c1cccc(/C(CSc2nc3ccccc3[nH]2)=N\N=C\c2cc[nH]c2)c1 [Compound 6, 2-(((E)-2-(((E)-(1H-pyrrol-3-yl)methylene)hydrazono)-2-(3-nitrophenyl)ethyl)thio)-1H-benzo[d]imidazole] | 32.14 ± 0.21 µM | 28.12 ± 0.09 µM |  |  |
| Cc1ccc(/C(CSc2nc3ccccc3[nH]2)=N\N=C\c2cc[nH]c2)cc1 [Compound 7, 2-(((E)-2-(((E)-(1H-pyrrol-3-yl)methylene)hydrazono)-2-(p-tolyl)ethyl)thio)-1H-benzo[d]imidazole] | 39.55 ± 0.03 µM | 36 ± 0.41 µM |  |  |
| COc1ccccc1/C(CSc1nc2ccccc2[nH]1)=N\N=C\c1cc[nH]c1 [Compound 8, 2-(((E)-2-(((E)-(1H-pyrrol-3-yl)methylene)hydrazono)-2-(2-methoxyphenyl)ethyl)thio)-1H-benzo[d]imidazole] | 25.1 ± 0.44 µM | 21.03 ± 0.11 µM |  |  |
| COc1ccc(/C(CSc2nc3ccccc3[nH]2)=N\N=C\c2cc[nH]c2)cc1 [Compound 9, 2-(((E)-2-(((E)-(1H-pyrrol-3-yl)methylene)hydrazono)-2-(4-methoxyphenyl)ethyl)thio)-1H-benzo[d]imidazole] | 28.01 ± 0.13 µM | 24.16 ± 0.21 µM |  |  |
| O=[N+]([O-])c1cccc(/C(CSc2nc3cc([N+](=O)[O-])ccc3[nH]2)=N\N=C\c2cc[nH]c2)c1 [Compound 10, 2-(((E)-2-(((E)-(1H-pyrrol-3-yl)methylene)hydrazono)-2-(3-nitrophenyl)ethyl)thio)-5-nitro-1H-benzo[d]imidazole] |  |  | 21.6 ± 0.61 µM | 19.4 ± 0.6 µM |
| O=[N+]([O-])c1ccc2[nH]c(SC/C(=N/N=C/c3cc[nH]c3)c3ccc(-c4ccccc4)cc3)nc2c1 [Compound 11, 2-(((E)-2-(((E)-(1H-pyrrol-3-yl)methylene)hydrazono)-2-([1,1′-biphenyl]-4-yl)ethyl)thio)-5-nitro-1H-benzo[d]imidazole] | 37.76 ± 0.08 µM | 32.13 ± 0.18 µM |  |  |
| COc1ccc(/C(CSc2nc3cc([N+](=O)[O-])ccc3[nH]2)=N\N=C\c2cc[nH]c2)cc1 [Compound 12] | 27.35 ± 0.06 µM | 23.1 ± 0.35 µM |  |  |
| Cc1ccc(/C(CSc2nc3cc([N+](=O)[O-])ccc3[nH]2)=N\N=C\c2cc[nH]c2)cc1 [Compound 13, 2-(((E)-2-(((E)-(1H-pyrrol-3-yl)methylene)hydrazono)-2-(p-tolyl)ethyl)thio)-5-nitro-1H-benzo[d]imidazole] | 33.3 ± 0.42 µM | 27.08 ± 0.25 µM |  |  |
| COc1ccc2[nH]c(SC/C(=N/N=C/N3CCCCC3)c3ccc(-c4ccccc4)cc3)nc2c1 [Compound 14, 2-(((E)-2-([1,1′-biphenyl]-4-yl)-2-(((E)-piperidin-1-ylmethylene)hydrazono)ethyl)thio)-5-methoxy-1H-benzo[d]imidazole] | 47.03 ± 0.15 µM | 42.01 ± 0.02 µM |  |  |
| COc1ccc2[nH]c(SC/C(=N/N=C/N3CCCCC3)c3ccccc3OC)nc2c1 [Compound 15, 5-methoxy-2-(((E)-2-(2-methoxyphenyl)-2-(((E)-piperidin-1-ylmethylene)hydrazono)ethyl)thio)-1H-benzo[d]imidazole] | 29.11 ± 0.14 µM | 26.03 ± 0.15 µM |  |  |
| COc1ccc(/C(CSc2nc3cc(OC)ccc3[nH]2)=N\N=C\N2CCCCC2)cc1 [Compound 16, 5-methoxy-2-(((E)-2-(4-methoxyphenyl)-2-(((E)-piperidin-1ylmethylene) hydrazono)ethyl)thio)-1H-benzo[d]imidazole] | 30.01 ± 0.23 µM | 28.13 ± 0.23 µM |  |  |
| COc1ccc2[nH]c(SC/C(=N/N=C/N3CCCCC3)c3cccc([N+](=O)[O-])c3)nc2c1 [Compound 17, 5-methoxy-2-(((E)-2-(3-nitrophenyl)-2-(((E)-piperidin-1-ylmethylene)hydrazono)ethyl)thio)-1H-benzo[d]imidazole] | 27.3 ± 0.5 µM | 23.1 ± 0.41 µM |  |  |
| COc1ccc2[nH]c(SC/C(=N/N=C/N3CCCCC3)c3ccc(C)cc3)nc2c1 [Compound 18, 5-methoxy-2-(((E)-2-(((E)-piperidin-1-ylmethylene)hydrazono)-2-(p-tolyl)ethyl)thio)-1H-benzo[d]imidazole] | 39.11 ± 0.13 µM | 36.15 ± 0.03 µM |  |  |
| Cc1ccc(/C(CSc2nc3ccccc3[nH]2)=N\N=C\N2CCCCC2)cc1 [Compound 19, 2-(((E)-2-(((E)-piperidin-1-ylmethylene)hydrazono)-2-(p-tolyl)ethyl)thio)-1H-benzo[d]imidazole] | 36.22 ± 0.11 µM | 33.19 ± 0.09 µM |  |  |
| O=[N+]([O-])c1cccc(/C(CSc2nc3ccccc3[nH]2)=N\N=C\N2CCCCC2)c1 [Compound 20, 2-(((E)-2-(3-nitrophenyl)-2-(((E)-piperidin-1-ylmethylene)hydrazono)ethyl)thio)-1H-benzo[d]imidazole] | 31.25 ± 0.03 µM | 29.04 ± 0.22 µM |  |  |
| COc1ccccc1/C(CSc1nc2ccccc2[nH]1)=N\N=C\N1CCCCC1 [Compound 21, 2-(((E)-2-(2-methoxyphenyl)-2-(((E)-piperidin-1-ylmethylene)hydrazono)ethyl)thio)-1H-benzo[d]imidazole] | 38.02 ± 0.04 µM | 30.1 ± 0.41 µM |  |  |
| COc1ccc(/C(CSc2nc3ccccc3[nH]2)=N\N=C\N2CCCCC2)cc1 [Compound 22, 2-(((E)-2-(4-methoxyphenyl)-2-(((E)-piperidin-1-ylmethylene)hydrazono)ethyl)thio)-1H-benzo[d]imidazole] | 34.31 ± 0.12 µM | 34.02 ± 0.11 µM |  |  |
| O=[N+]([O-])c1ccc2[nH]c(SC/C(=N/N=C/N3CCCCC3)c3ccc(-c4ccccc4)cc3)nc2c1 [Compound 23] | 42.27 ± 0.41 µM | 38.2 ± 0.4 µM |  |  |
| COc1ccc(/C(CSc2nc3cc([N+](=O)[O-])ccc3[nH]2)=N\N=C\N2CCCCC2)cc1 [Compound 24, 2-(((E)-2-(4-methoxyphenyl)-2-(((E)-piperidin-1-ylmethylene)hydrazono)ethyl)thio)-5-nitro-1H-benzo[d]imidazole] | 39.66 ± 0.24 µM | 32.05 ± 0.14 µM |  |  |
| Cc1ccc(/C(CSc2nc3cc([N+](=O)[O-])ccc3[nH]2)=N\N=C\N2CCCCC2)cc1 [Compound 25, 5-nitro-2-(((E)-2-(((E)-piperidin-1-ylmethylene)hydrazono)-2-(p-tolyl)ethyl)thio)-1H-benzo[d]imidazole] | 32.25 ± 0.12 µM | 35.01 ± 0.25 µM |  |  |
